From patent EP0470323A2, “New salts of the nicotinic acid with aminobenzylic compounds and their pharmaceutical use” (BROMLEY LIMITED, priority 1990, dated 1992)

Assays:
[1] = system: HeLa human cells cultures; experiment: DNA repair synthesis (tritiated thymidine incorporation) in HeLa cell cultures; assay type: cell-based; conditions: vs controls treated with solvent, dosages tested
Text: The compound according to the Example 1 has been tested, in order to check and see its mutagenic effects.

[2] = system: five strains of Typhumurium Salmonella; experiment: Mutagenic action of urines of intragastrically treated rats on Salmonella; assay type: cell-based; conditions: urines of rats treated intragastrically with two doses, with metabolic activation, beta-glucoronidase absent
HeLa cells (DnA-repair) = experiment: Mutagenic action of urines of intragastrically treated rats on HeLa cells (DNA repair); assay type: cell-based, human; conditions: urines of rats treated intragastrically with two doses, with metabolic activation, beta-glucoronidase absent
[3] = system: Hypertriglyceridaemia caused by ethanole in the rats; experiment: Hypertriglyceridaemia caused by ethanol in rats, activity at three dose levels; assay type: in vivo; conditions: rat; for Triglycerids M ± E.S.: 4 hours after last treatment; for Triglycerids % vs contr. positivi: 4 hours after treatment
Text: (§1) For this test group the methods described by Sistori C.R. and colleagues (Atherosclerosis 30, 45; 1978) is followed.
(§2) The hypertriglyceridaemia has been induced into the male rats having a body weight of 160 - 170 g by giving them to drink, for 4 consecutive days, a solution of 10% ethanole in water.

[4] = system: Hypertriglyceridaemia caused by ethanole in the rats; experiment: Hypertriglyceridaemia caused by ethanol in rats, duration of the effects; assay type: in vivo; conditions: rat, dose 1 mM/kg/os
Text: as §1, §2
In order to perform the particular kinetics of the compound in accordance with the example 1 following the instant invention, it was considered appropriate, anyway, to evaluate the duration of the hypolipaemizing effect in comparison to that of the nicotinic acid.
A group of normal animals was treated with the vehicle only and did serve as a negative control group.

[5] = system: aggregation of the platelets caused by the collagene; experiment: Anti-aggregating ex vivo activity against collagen in the rat; conditions: for Latency time (sec.) / Transmittance percentage (maximum aggregation): PRP 2 hours after last treatment, collagene 4 mcg/ml
Experimental: Six groups of 15 male rats of 200 - 250 g have been used.
The blood taken from the three rats of each group has been mixed and centrifuged during 6 minutes at 1400 rpm, at room temperature. After having taken the plasma full of platelets (PRP) the thereunder floating material has been centrifuged again (4000 rpm during 10 minutes) in order to have the plasma with few platelets (PPP) separated from the balance. The PRP has been diluted with a part of PPP in order to bring the number of platelets to 350 ± 50 x 10³/mm³. The aggregation has been evaluated in accordance with the method of Minsker D.H. and coll. (J. Pharmacol.Exp.Ther. 210 37 1979) by using an ELVI 840 two-channels aggregometer and an Omniscribe recorder B.500. A quantity of 0,25 ml PRP has been used, transferred into the aggregometer for two minutes at 37°C and stirred at 1000 rpm. The light intensity was arranged in such a way, to obtain 0% transmittance with the PRP and 100% with the PPP. After 2′ incubation, by means of microsyringe the collagene was added to the PRP in a volume quantity of 5 mcl with the final concentration of 4 mcg/ml.
From the aggregation trace of the recorder the following data have been evaluated: • a) latent time of the aggregation (seconds between the introductions of collagene and the starting of the aggregation) • b) transmittance increase percentage (maximum aggregation). The same proceeding was repeated for all animals, always by mixing the blood of three rats belonging to the same group and by obtaining in this manner five aggregation curves per group.

red cells in the rat [6] = experiment: Red cell adhesivity / filtration, Teitel method; assay type: in vivo; conditions: listed as Compound as Ex. 1
Text: (§3) steresis (Teiltel P.: Nouv. Rev. Franç. Hématol. 7, 195, 1967). Any alteration, almost undoubtely at the level of the red cell's membrane, cause some damaging variations of the red cell's elasticity thus making more difficult the passing through the capillary vessels having more reduced diameter, and therefore increasing the flow resistance in the peripheral vessels systems. In order to determine the effect caused by the compound according to the Example 1, on these features of the red cell, the method described by Schmidt, Schonbein and colleagues (Blut 26, 369, 1973) has been used.
(§4) In the circulatory flow, the above mentioned capillary vessels being excluded, the blood cells do normally circulate being attached between each other because of their adhesiveness. In order to study this adhesion force, the above mentioned Teitel method has been used. Male rats of 150 g body weight approximately have been employed, and they have been treated for three consecutive days with 0,5 mM/kg/os of the compound according to the Example 1, or otherwise Buflomedil, or even Pentosiphillin used as comparison substance. After the last treatment the animals, without eating from 18 hours, have been killed in a light ethereal anaesthesy and the blood was collected over an 0,2 molar EDTA (9 and 1 volumes respectively). The red cells filtering possibility, measured with the Teitel method, wherein the quantity of red cells passing, in high haematocritical conditions, through a paper filter with holes of 20-40 µm in a previously determined time, has been ascertained as follows: the blood was centrifuged for ten minutes at 2000 rpm in order to obtain the massing of the red cells, two ml of the blood collected as above were put into an upside down turned cone made with filtering paper, being previously wetted with a physiological solution. The volume passing through the filter in 2 - 4 - 8 and 16 minutes is then measured. The average filtration time T 1/2 is reckoned on semi-logarithmic paper by putting on the abscissae the logarithm of the time, and on the ordinates the percentage of blood filtered. In order to follow the Schmidt Schönbein method, the here after described proceeding has been performed: 0,2 ml of a suspension of red cells at 2% obtained by diluting the blood with the autological plasma, then it was placed into an appropriate device permitting to filter this blood through a filter (millipores) of 5 µm mashes at a filtration pressure of 50 mm water. With a chronometer one determines the time required for the passage of the whole sample through the filter.
At time same time, one measures, in the same conditions, the same parameter for a plasma sample. One calculates then the relative filtration time by dividing the time required to filter the diluted blood sample by the time being necessary to filter the plasma sample. For each group the average and the standard error of the individual data obtained was reckoned. The statistical evaluation was obtained by means of the Dunnett test.

red cells in the rat [7] = experiment: Red cell deformability / filtration, Schmidt-Schönbein method; assay type: in vivo; conditions: dose 3 x 0,5 mM/kg/os, listed as Compound as Ex. 1
Text: as §3
as §4, with “The average filtration time T 1/2 is reckoned on semi-logarithmic paper by putting on the abscissae the logarithm of the time, and on the ordinates the percentage of blood filtered. In order to follow the Schmidt Schönbein method, the here after described proceeding has been performed: 0,2 ml of a suspension of red cells at 2% obtained by diluting the blood with the autological plasma, then it was placed into an appropriate device permitting to filter this blood through a filter (millipores) of 5 µm mashes at a filtration pressure of 50 mm water. With a chronometer one determines the time required for the passage of the whole sample through the filter.” left out

[8] = rat, 1,00 mM/kg os for 4 days, listed as Compound according to the Example N° 1

COc1cc(OC)c(C(=O)CCCN2CCCC2)c(OC)c1 [Example 1, 4-(1 pyrrholydinyl)-1-(2,4,6 trimethoxypheniyl)-1-nicotinized butanone]
quantity of tritium-added Thymidine included into the DNA of the cells (repair synthese) [1]: did not determine any variation | mutagenic action [2]: any mutagenic action did not result | mutagenic action (HeLa cells (DnA-repair)): any mutagenic action did not result | Triglycerids M ± E.S. ([3]; dose 0,5 mM/kg/os once a day for 4 days): 148,2 ± 16,4 mg/100 ml | Triglycerids % vs contr. positivi ([3]; dose 0,5 mM/kg/os): -26,8% | Triglycerids M ± E.S. ([3]; dose 1,0 mM/kg/os once a day for 4 days): 135,0 ± 12,6 mg/100 ml | Triglycerids % vs contr. positivi ([3]; dose 1,0 mM/kg/os): -33,6% | Triglycerids M ± E.S. ([3]; dose 2,0 mM/kg/os once a day for 4 days): 112,6 ± 14,3 mg/100 ml | Triglycerids % vs contr. positivi ([3]; dose 2,0 mM/kg/os): -44,4% | decrease (of triglycerides vs positive controls) ([3]; dose of 0,4 mM/kg): 26,8% | decrease (of triglycerides vs positive controls) ([3]; dose of 1 mM/kg per os): 33,3% | decrease (of triglycerides vs positive controls) ([3]; dose of 2 mM/kg): 44,4% | % variation vs positive controls (Trigliceridi) ([4]; 4 h): -38,2% | Trigliceridi ([4]; 4 h from the last treatment): 158,9 ± 11,6 mg/100 ml | % variation vs positive controls (Trigliceridi) ([4]; 6 h): -42,6% | Trigliceridi ([4]; 6 h from the last treatment): 135,6 ± 10,9 mg/100 ml | % variation vs positive controls (Trigliceridi) ([4]; 12 h): -31,5% | Trigliceridi ([4]; 12 h from the last treatment): 141,0 ± 21,1 mg/100 ml | % variation vs positive controls (Trigliceridi) ([4]; 16 h): -22,1% | Trigliceridi ([4]; 16 h from the last treatment): 145,3 ± 12,7 mg/100 ml | % variation vs positive controls (Trigliceridi) ([4]; 24 h): -9,2% | Trigliceridi ([4]; 24 h from the last treatment): 150,1 ± 8,4 mg/100 ml | Latency time, % variation vs controls ([5]; rat, 0,25 mM/kg os for 4 days): +15,7% | Transmittance percentage, % variation vs controls ([5]; rat, 0,25 mM/kg os for 4 days): -14,4% | Latency time (sec.) ([5]; rat, 0,25 mM/kg os for 4 days): 43,4 ± 4,2 sec. | Transmittance percentage (maximum aggregation) ([5]; rat, 0,25 mM/kg os for 4 days): 67,3 ± 4,4% | Latency time, % variation vs controls ([5]; rat, 0,50 mM/kg os for 4 days): +38,7% | Transmittance percentage, % variation vs controls ([5]; rat, 0,50 mM/kg os for 4 days): -34,3% | Latency time (sec.) ([5]; rat, 0,50 mM/kg os for 4 days): 52,0 ± 3,5 sec. | Transmittance percentage (maximum aggregation) ([5]; rat, 0,50 mM/kg os for 4 days): 51,6 ± 4,0% | Latency time (sec.) [5, 8]: 64,5 ± 5,4 sec. | Transmittance percentage (maximum aggregation) [5, 8]: 30,2 ± 3,6% | Latency time, % variation vs controls [5, 8]: +72,0% | Transmittance percentage, % variation vs controls [5, 8]: -61,6% | Teitel method T1/2 min. M ± E.S. (red cells in the rat [6]; dose 3 x 0,5 mM/kg/os (three consecutive days)): 2,26 ± 0,21 min. | Teitel method Δ % vs contr. (red cells in the rat [6]; dose 3 x 0,5 mM/kg/os): 37,9% | Schmidt-Schönbein method Δ % vs contr. (red cells in the rat [7]): 46,2%
